The nature of data set [1]: stability study of KYNA in MQ with and without 150 mM NaCl and in buffer. To be noted: pH 7.4. The method, then: New types of nanocomposites have been prepared within physiological conditions, in the nano-size range for the purpose of crossing the pharmaceutically active ingredients through the blood-brain barrier. […] The amount of the material constituting the composites, than the conditions of the preparation were determined. Stability studies were performed for the active ingredients by ensuring various conditions (pH=3 to 8 in physiological solution and without said physiological solution, in both phosphate and HEPES buffers). […]
The release tests were made in case of KYNA in PBS buffer at pH=7.4. (physiological solution). […]

The nature of data set [2]: in vitro drug release in Franz cell (vertical diffusion cell), kinetic models. In kind it is physicochemical. The following applies: IBU containing composites. As to the method:
FIG. 7: A schematic figure of the Franz-cell (vertical diffusion cell) with which the in vitro drug release experiments were carried out. […] The active ingredient release tests were made at two temperatures: at 25 and 37.5° C. (FIGS. 7 and 8).

For data set [3], the system named is somatosensory evoked potentials (SEPs). As to the kind of experiment: in vivo amplitudes of somatosensory evoked potentials after peripheral administration. More on the design: species or system male Wistar rats. The following applies: intraperitoneal administration, 300 mg/kg, n=5. From the text: The preparation of the corresponding composite (FIG. 1) was accomplished with the following parameters. […] At a neutral pH the compact structure of the protein offers an opportunity to enclose large amount of kynurenic acid. In the “heart shaped” conformation of the BSA, the hydrophobic parts directed inside the conformation can form hydrogen-bridge, hydrophobic, furthermore ππ interactions with the KYNA molecule. […] After the in vitro drug release experiments the KYNA permeability was investigated with the help of an in vitro blood-brain barrier model. […] The animal experiments were performed on male Wistar rats (300 g, n=30). During the tests the effect of the peripherally administered KYNA was investigated in the central nervous system.

Data set [4] deals with microvessel rat brain endothelial cells. As to the kind of experiment: KYNA permeability in in vitro blood-brain barrier model. To be noted: 20 μM KYNA final concentration, 1 hour, corrected for empty filters. The class given is in vitro ADME. The method, then:
The permeability of KYNA through the blood-brain barrier from BSA/KYNA/PAH nanocapsules was determined by means of an in vitro blood-brain barrier model. The description of the model is the following: microvessel rat brain endothelial cells were isolated from 2 to 3 weeks old Wistar animals by means of a method described earlier (Wilhelm és munkatársai, 2011). After the removal of the meninges, the brain tissue was dissectioned to small pieces, then it was digested by type 2 collagenase and collagenase/dispase, finally it was centrifuged on percoll gradient. The microvessel fragments were plated on collagenIV/fibronectin-coated Petri dishes and were cultured in DMEM/F12 in the presence of plasma serum and growth factors. […]
From these samples the concentration of KYNA was determined using an Agilent 1100 HPLC-MS system (Agilent Technologies, Santa Clara, Calif., USA).
To calculate the permeability coefficient the following formulae were applied: PappdQ/(dT×A×C0), wherein dQ stands for the crossed amount of the material, dT stands for the incubation period of time (1 hour), A stands for the surface of the filter and C0 stands for the starting concentration (20 μM). The values thus calculated were compared to the values measured on empty (not containing cells) filters according to the following method: […]).

This is an account of results in US10857236B2, “Sustained release nanocomposite, a process for producing the same and use thereof” (SZEGEDI TUDOMÁNYEGYETEM, priority 2015, dated 2020).

Compound `NCCc1ccc(O)c(O)c1` [DOPA, dopamine] had a demonstrated stability until in data set [1] of 72 h.

Take `CC(C)Cc1ccc(C(C)C(=O)O)cc1` (stereo not drawn) [IBU, ibuprofen]: in data set [2] (25° C.), the “Release rate, depending on the concentration, first-order kd” value was determined as 0.0064 s⁻¹; the “Release rate, diffusion controlled, Higuchi kd” value was 5.6 * 10^−0 s^−1/2; the “Release rate, not depending on the concentration, zero-order kd” value came to 0.5 s⁻¹. For the same compound, in data set [2] (37.5° C.), the “Release rate, depending on the concentration, first-order kd” value was 0.011 s⁻¹; the “Release rate, diffusion controlled, Higuchi kd” value was 8.7 * 10^−0 s^−1/2; the “Release rate, not depending on the concentration, zero-order kd” value worked out at 0.77 s⁻¹.

For the compound `Nc1ccccc1C(=O)C[C@H](N)C(=O)O` [L-KYN, L-kynurenin], in data set [3], the “change of amplitude of somatosensory evoked potentials” value was “no significant change”.

For the compound `O=C([O-])c1ccccc1-c1c2ccc(=O)cc-2oc2cc([O-])ccc12.[Na+].[Na+]` [Na-fluoresceine], the “permeability coefficient Pe” value in data set [4] is reported as 2.96*10^−6 cm/s.
